From publication PMC12970513, “Unsaturated Phosphorus Electrophiles to Probe Protein Tyrosine Phosphatases” (Angewandte Chemie (International Ed. in English), 2026)

Test system: PTP1B in MCF-7 cell lysate
Experiment: Proteomic profiling (SP2E enrichment, LC-MS/MS), MCF-7 lysate
Design: species or system human
Conditions: 500 µM SM-PO, vs DMSO
Protocol: Finally, we employed bottom‐up proteomics to validate that the labeled protein corresponds to the intended target PTP1B. For this, first MCF‐7 cell lysate (400 µg) was treated with 500 µM bio‐PO for 4 h. Directly afterwards, we applied a protocol described by the Kielkowski group, termed SP2E, which integrates protein purification with magnetic carboxyl‐coated beads and enrichment using magnetic streptavidin beads (Figure 5c). […] We reasoned that this might be due to the lower abundance of PTP1B in HEK293T compared to MCF‐7 lysate. Therefore, the protocol was repeated by doubling the proteome input to 800 µg. Following this minor adjustment, PTP1B was then enriched in our analysis (>4‐fold) (Figure 5e). […] However, this protein is included in the contamination repository for affinity purification (CRAPome) and appears in about half of such experiments as a contaminant. Given the comparably low PTP1B levels in Ramos lysate, we refrained from attempting pull‐down experiments from this cell line. […]
For proteome labelling using the SP2E workflow, a modified protocol by Becker et al. was followed.^[13] […] Tryptic peptides were eluted from the magnetic beads using a magnetic rack, samples were diluted and analyzed by qToF for purity i.e. absence of detergents and successful trypsin digestion. […]

## C#CP(=O)(O)Oc1ccc(CCNC(=O)CCCC[C@@H]2SC[C@@H]3NC(=O)N[C@@H]32)cc1 [SM-PO, 4-(2-biotinamidoethyl)phenyl ethynylphosphonic acid monoester]
  other proteins enriched by SM-PO: adipocyte plasma membrane–associated protein (APMAP) was identified among the enriched proteins
Enrichment >2 log2 fold change, p ≤ 0.05
  enrichment of PTP1B or other phosphatases by SM-PO: neither PTP1B nor any other phosphatase was significantly enriched
